Measured values: patent US20160166654A1, “COLLAGEN-TARGETED NANOPARTICLES” (PURDUE RESEARCH FOUNDATION, priority 2011, published 2016)

Test system: TNF-α production by human monocytes (THP-1)
Assay: TNF-α production by THP-1 cells (ELISA)
Assay type: cell-based
Conditions: 24 hours, FIG. 8
Procedure: The biocompatibility of the nanoparticles was assessed by measuring toxicity and inflammation in THP-1 cells. Cells were seeded at a density of 250,000 cells/ml in 96-well plates (Corning) and treated with 10 ng/ml phorbol 12-myristate 13-acetate (PMA, Sigma-Aldrich) for 48 hours to induce differentiation, which was confirmed by the monocytes becoming adherent. Following a change of media, cells were treated with various concentrations of core+shell nanoparticles. Control samples received PBS (negative control) or 50 ng/ml lipopolysaccharide (LPS, Sigma-Aldrich) (positive control). After 24 hours, the media was collected for cytokine analysis and an MTT-based assay was performed to determine cell toxicity using the Aqueous One Proliferation Kit (Promega) according to manufacturer's instructions. […] After two hours of incubation in the cell culture incubator, the absorbance was read at 490 nm with a correction at 650 nm.
The ability of the particles to cause an inflammatory response was determined by running conditioned cell media on a TNF-α ELISA (PeproTech) according to manufacturer instructions. […] Following incubation with a detection antibody and an avidin-horse radish peroxidase conjugate, the samples were developed with the addition of 2,2′-azino-bis(3-ethylbenzthiazoline-6-sulphonic acid) (ABTS) liquid substrate (Sigma-Aldrich) and monitored at 405 nm with a correction at 650 nm.

Q: How did the TNF-α production turn out when lipopolysaccharide was run?
A: did induce TNF-α production
